From PMC12298237 (Marine Drugs, 2025)
Where a SMILES comes first, the peptide text is derived from it. [ ]: non-standard residue; d: D form. The star is where a group is joined. Leu(ol) = CC(C)C[C@H](N)CO; dIva = CC[C@@](C)(N)C(=O)O; Octanoyl = CCCCCCCC(=O)*

What was measured:
Assay type in all cases: cell-based, human
DLD-1 cells [1] = test: Cell cycle analysis by flow cytometry (PI); conditions: DLD-1, 24 h of exposure, in words
Procedure: (§1) Following treatment, cells were collected, washed, and fixed in 75% pre-chilled ethanol at −20 °C for 24 h. After fixation, cells were centrifuged, washed twice with cold PBS, and stained with propidium iodide (PI, 0.1 mg/mL) in the presence of RNase A (0.1 mg/mL) at 37 °C for 30 min. Cell cycle distribution was analyzed by flow cytometry (LSRFortessa, BD, Canton, MA, USA). To enhance the clarity of the results, cell populations were selectively gated using the ModFit LT 5.0 software.

HT-29 cells [2] = test: Cell cycle analysis by flow cytometry (PI); conditions: HT-29, 24 h of exposure, in words
Procedure: as §1

DLD-1 cells [3] = test: Colony formation assay; conditions: DLD-1, 9 or 18 μM, two weeks, crystal violet, vs untreated control, n = 3
Procedure: (§2) For colony formation assays, DLD-1 and HT-29 cells were seeded into 6-well plates at a density of 800 cells per well. […] The culture medium was refreshed every four days. After two weeks of continuous culture, colonies were fixed with 4% paraformaldehyde for 15 min and subsequently stained with crystal violet solution (Yuanye, Shanghai, China) for 20 min. Colony formation was quantified using ImageJ 1.54g software.

HT-29 cells [4] = test: Colony formation assay; conditions: HT-29, 9 or 18 μM, two weeks, crystal violet, vs untreated control, n = 3
Procedure: as §2

DLD-1 cells [5] = test: Calcein-AM/PI staining assay; conditions: DLD-1, 18 μM, 0, 6, 12 and 18 h, fluorescence microscopy
Procedure: (§3) For the Calcein-AM/PI staining assay, DLD-1 and HT-29 cells were seeded in 24-well plates at 5 × 10^4 cells per well. […] After incubation for 0, 6, 12, and 18 h, cells were stained by using the calcein AM (MedChem Express (Monmouth Junction, NJ, USA), 5 μM) and propidium iodide (MedChem Express, 50 μg/mL). The cells were incubated in the dark at 37 °C for 30 min, followed by imaging with an inverted fluorescence microscope.

HT-29 cells [6] = test: Calcein-AM/PI staining assay; conditions: HT-29, 18 μM, 0, 6, 12 and 18 h, fluorescence microscopy
Procedure: as §3

[7] = test system: phosphorylated ERK1/2 (p-ERK) in DLD-1 cells; test: Western blot of phosphorylated ERK1/2; conditions: DLD-1, 9 and 18 μM, 24 h
Procedure: (§4) Western blotting was performed as previously described. […] Cells were washed twice with PBS and lysed in RIPA buffer (Beyotime Biotechnology, Jiangsu, China) on ice for 30 min. Lysates were centrifuged at 12,000 rpm for 20 min at 4 °C, and the supernatant containing total protein was collected. Equal amounts of protein were separated by SDS-PAGE and transferred onto polyvinylidene fluoride (PVDF) membranes. Membranes were blocked with 5% non-fat milk at room temperature for 1 h, followed by incubation with the appropriate primary and secondary antibodies. Protein bands were visualized using the Omni-ECL Femto Light Chemiluminescence Kit (Epizyme, Shanghai, China) and imaged with the Amersham Imager 680 (Cytiva, Marlborough, MA, USA).

[8] = test system: phosphorylated ERK1/2 (p-ERK) in HT-29 cells; test: Western blot of phosphorylated ERK1/2; conditions: HT-29, 9 and 18 μM, 24 h
Procedure: as §4

For `CCCCCCCC(=O)NCC(=O)N[C@@H](Cc1ccccc1)C(=O)N[C@@H](CC(C)C)C(=O)N[C@](C)(CC)C(=O)N[C@@H](C)C(=O)N[C@@H](CC(C)C)C(=O)N[C@H](CO)CC(C)C` [Compound 1, lipotrichaibol A] (Octanoyl-GFL[dIva]AL[Leu(ol)]), the “proportion of cells in the G0/G1 phase” value (DLD-1 cells [1]) was “significant increase”, the “proportion of cells in the G0/G1 phase” value (HT-29 cells [2]) was “significant increase” and the “number of colony-forming cells” value (DLD-1 cells [3]) was “markedly reduced”. The “number of colony-forming cells” value (HT-29 cells [4]) was “markedly reduced”, the “cell proliferation and dead cells (Calcein-AM/PI staining)” value (DLD-1 cells [5]) was “pronounced reduction in cell proliferation” and the “cell proliferation and dead cells (Calcein-AM/PI staining)” value (HT-29 cells [6]) was “pronounced reduction in cell proliferation”. For the same compound, the “levels of phosphorylated ERK1/2 (p-ERK)” value [7] was “significantly reduced” and the “levels of phosphorylated ERK1/2 (p-ERK)” value [8] was “significantly reduced”.
